Tests used:
[1] = system: mucus secretion in differentiated HBECs; experiment: ATP-γS-induced mucin secretion in differentiated HBECs, enzyme-linked lectin assay (ELLA); format: cell-based, human
Protocol: The effect of siRNA knockdown of CTSC expression on mucin secretion in differentiated HBECs is examined using the CTSC SMARTPOOL at different concentrations (0.3-10 nM). Adenosine triphosphate is used as a mucin secretagogue and secreted mucin is measured using an enzyme-linked lectin assay (ELLA; Kemp, Sugar and Jackson Am. J. Respir. Cell Mol. Biol. (2004) 31: 446-455). HBECs (16.5×10^4 cells per insert from donor 2F1S78) are transfected and cultured using the 9 day differentiation model as described in Example 2. At day 9 (6 days ALI) HBEC inserts are exposed to 100 μM ATP-γS for 10 minutes and supernatants are removed for analysis by ELLA. ATP-γS-induced mucus secretion is inhibited at all CTSC siRNA SMARTPOOL concentrations, but is unaffected by either cyclophilin B siRNA or Lipofectamine alone.
The effect of Compound A on mucus secretion in the 9 day model is examined by adding the compound at various concentrations (0.1-10 μM) to the apical surface in minimal medium containing 0.1% dimethyl sulphoxide (DMSO) and incubating for 30 minutes at 37° C., followed by 10 minutes exposure to 100 μM ATP-γS.

[2] = system: goblet cell formation in HBECs; experiment: Goblet cell formation with Compound A in basolateral medium, 45M1 and AB/PAS staining; format: cell-based, human
Protocol: The siRNA duplexes are transfected into HBECs using […]. Transfection medium is prepared by mixing OPTI-MEM® I reduced serum medium (Invitrogen Corp.), siRNA duplex (5× final concentration) and Lipofectamine 2000™ (5× final concentration), incubating at room temperature for 30 minutes, then diluting 1:5 in antibiotic free differentiation medium (DIFF-AB medium; bronchial epithelial basal medium and Dulbeccos modified eagles medium [50:50] plus bronchial epithelial growth medium SingleQuots [bovine pituitary extract, insulin, hydrocortisone, all-trans retinoic acid, transferrin, epinephrine, tri-iodothyronine and human epidermal growth factor at the recommended concentrations, but no tri-iodothyronine and gentamycin/amphotericin B], all obtained from BioWhittaker) prior to addition to HBECs. For these experiments an abbreviated version of the HBEC model is used in which HBECs are maintained as submerged cultures for 3 days and then transferred to ALI for 6 days. Cells from a passage 2 (P2) stock of HBEC donor 2F1578 are cultured as described in Atherton et al. Am. J. Physiol. Lung Cell Mol. Physiol. (2003) 285: L730-L739 to approximately 85% confluence before harvesting for transfection. After trypsinisation and recovery by centrifugation, cells are resuspended at a density of 16.5×10^4 cells per ml in DIFF-AB medium containing siRNA duplex (10 nM) and Lipofectamine 2000™ (1 μl per ml) and seeded onto 12 well Transwell Clear inserts. One ml of HBEC/DIFF-AB medium/siRNA/lipofectamine 2000™ mix is deposited onto each insert and 1 ml of DIFF-AB medium is added to the basolateral chamber of each insert. After 24 hours (day 1 of submerged culture), all media is aspirated (apically and basolaterally) and replaced with 0.5 ml apically and 1 ml basolaterally of DIFF-AB medium containing 50 μg per ml gentamycin but no amphotericin B (DIFF-AB+G). On day 3, DIFF-AB+G medium is aspirated from the apical and basolateral surfaces and HBECs are cultured at ALI with DIFF-AB+G medium containing 1 ng per ml IL13. All cells are incubated at 37° C., 5% CO2 and 95% relative humidity. The basolateral medium is aspirated at days 5 and 7 and replaced with 1 ml DIFF-AB+G medium containing IL13. In addition the apical surface is rinsed with 0.5 ml phosphate buffered saline (PBS) to remove accumulated cell debris/mucus. Cells are harvested for total RNA extraction at days 3, 5, 7 and 9 as described above, and for goblet cell analysis by histology at day 9. For histology, inserts are fixed by the addition of 0.5 ml 10% neutral buffered formalin (NBF) to the apical surface followed by 1 ml NBF to the basolateral surface. After 24 hours of fixation the inserts are bisected and processed to RALwax through graded industrial methylated spirit (IMS) and chloroform. Both halves of the insert are embedded on edge using fresh RALwax. The paraffin blocks are sectioned at […] and stained with 45M1 antibody (an anti-MUCSAC antibody obtained from Lab-Vision Neomarkers) and alcian blue/haematoxylin and eosin (AB/H&E) according to standard histological protocols to enable detection of mucin and discrimination of individual cells by nuclear staining. The stained slides are examined microscopically.
[…] The effect on goblet cell formation is examined histologically by 45M1 and AB/PAS staining per unit length of epithelium.
A modest effect at 10 μM is seen, with no effect at 0.1 and 1 μM.

**Q.** How did the “mucus secretion (Vehicle = 100.00)” value ([1]; Compd A (0.1 μM), 30 minutes, then 100 μM ATP-γS 10 minutes) turn out when `CCCS(=O)(=O)Nc1ccc(Cc2cc3cnc(C#N)nc3n2CC(C)(C)C)cc1` [Compound A, propane-1-sulfonic acid {4-[2-cyano-7-(2,2-dimethyl-propyl)-7H-pyrrolo[2,3-d]pyrimidin-6-ylmethyl]-phenyl}-amide] was run?
**A.** 203.51

**Q.** And the “mucus secretion (Vehicle = 100.00)” value ([1]; Compd A (10 μM) only, no ATP, 30 minutes apical, 9 day model)?
**A.** 88.99

**Q.** And the “mucus secretion (Vehicle = 100.00)” value ([1]; Compd A (10 μM), first column so headed, 30 minutes, then 100 μM ATP-γS 10 minutes)?
**A.** 120.18

**Q.** What about the “mucus secretion (Vehicle = 100.00)” value ([1]; Compd A (10 μM), second column so headed, 30 minutes, then 100 μM ATP-γS 10 minutes) of the same compound?
**A.** 177.02

**Q.** And the “mucus secretion (in words)” value ([1]; Compound A 0.1-10 μM, 100 μM ATP-γS)?
**A.** dose-dependently inhibits

**Q.** And the “45M1 and AB/PAS staining per unit length of epithelium” value ([2]; Table 6, 9 day model (6 days ALI), 0.1 uM + IL13)?
**A.** no effect

**Q.** What about the “45M1 and AB/PAS staining per unit length of epithelium” value ([2]; Table 6, 9 day model (6 days ALI), 0.1 uM + IL13, listed as Compd A) of the same compound?
**A.** 2.533

**Q.** What about the “45M1 and AB/PAS staining per unit length of epithelium” value ([2]; Table 6, 9 day model (6 days ALI), 1 uM + IL13) of the same compound?
**A.** no effect

**Q.** And the “45M1 and AB/PAS staining per unit length of epithelium” value ([2]; Table 6, 9 day model (6 days ALI), 1 uM + IL13, listed as Compd A)?
**A.** 2.621

**Q.** What about the “45M1 and AB/PAS staining per unit length of epithelium” value ([2]; Table 6, 9 day model (6 days ALI), 10 uM + IL13) of the same compound?
**A.** modest effect

**Q.** What about the “45M1 and AB/PAS staining per unit length of epithelium” value ([2]; Table 6, 9 day model (6 days ALI), 10 uM + IL13, listed as Compd A) of the same compound?
**A.** 1.424

**Q.** What about the “45M1 and AB/PAS staining per unit length of epithelium” value ([2]; Table 6, 9 day model (6 days ALI), 10 uM, no IL13) of the same compound?
**A.** 0.300

**Q.** And the “45M1 and AB/PAS staining per unit length of epithelium” value ([2]; Table 7, 11 days at ALI, 0.1 uM + IL-13 1 ng/ml)?
**A.** 3.609

**Q.** What about the “45M1 and AB/PAS staining per unit length of epithelium” value ([2]; Table 7, 11 days at ALI, 1 uM + IL-13 1 ng/ml) of the same compound?
**A.** 3.700

**Q.** What about the “45M1 and AB/PAS staining per unit length of epithelium” value ([2]; Table 7, 11 days at ALI, 10 uM + IL-13 1 ng/ml) of the same compound?
**A.** greater inhibition

**Q.** What about the “45M1 and AB/PAS staining per unit length of epithelium” value ([2]; Table 7, 11 days at ALI, 10 uM + IL-13 1 ng/ml, listed as Compd A) of the same compound?
**A.** 0.886

**Q.** What about the “45M1 and AB/PAS staining per unit length of epithelium” value ([2]; Table 7, 11 days at ALI, 10 uM, no IL-13) of the same compound?
**A.** 0.153

From patent US20080260726A1, “Organic Compounds” (priority 2005, published 2008)
